Reference: ChEMBL document CHEMBL3797055, “Glabridin-chalcone hybrid molecules: drug resistance reversal agent against clinical isolates of methicillin-resistant Staphylococcus aureus” (Medchemcomm, 2016)
Values after ≈ are worked out from the molar mass of the structure shown.

Tests used:
Type in all cases: functional
Staphylococcus aureus [1] = assay: Antibacterial activity against clinical isolates of methicillin-resistant Staphylococcus aureus P4650 by broth microdilution assay
Staphylococcus aureus [2] = assay: Antibacterial activity against clinical isolates of methicillin-resistant Staphylococcus aureus ST10342 by broth microdilution assay
Staphylococcus aureus [3] = assay: Antibacterial activity against Staphylococcus aureus MTCC 96 by broth microdilution assay
Staphylococcus aureus [4] = assay: Antibacterial activity against clinical isolates of methicillin-resistant Staphylococcus aureus ST10760 by broth microdilution assay
Staphylococcus aureus [5] = assay: Antibacterial activity against clinical isolates of methicillin-resistant Staphylococcus aureus P4423 by broth microdilution assay
Staphylococcus aureus [6] = assay: Antibacterial activity against clinical isolates of methicillin-resistant Staphylococcus aureus P4629 by broth microdilution assay
Staphylococcus aureus [7] = assay: Antibacterial activity against clinical isolates of methicillin-resistant Staphylococcus aureus ST2071 by broth microdilution assay

Structure (SMILES) | MIC (Staphylococcus aureus [1]) | MIC (Staphylococcus aureus [2]) | MIC (Staphylococcus aureus [3]) | MIC (Staphylococcus aureus [4]) | MIC (Staphylococcus aureus [5]) | MIC (Staphylococcus aureus [6]) | MIC (Staphylococcus aureus [7])
COc1ccc(C(=O)/C=C/c2cc([C@@H]3COc4c(ccc5c4C=CC(C)(C)O5)C3)c(OC)cc2OC)c(OC)c1 | 12.5 µg/mL (≈ 23 µM) | 25 µg/mL (≈ 46.1 µM) | 12.5 µg/mL (≈ 23 µM) | 25 µg/mL (≈ 46.1 µM) | 25 µg/mL (≈ 46.1 µM) | 25 µg/mL (≈ 46.1 µM) | 25 µg/mL (≈ 46.1 µM)
COc1cc(OC)c([C@@H]2COc3c(ccc4c3C=CC(C)(C)O4)C2)cc1/C=C/C(=O)c1ccccc1 | 25 µg/mL (≈ 51.8 µM) | 25 µg/mL (≈ 51.8 µM) | 25 µg/mL (≈ 51.8 µM) | 25 µg/mL (≈ 51.8 µM) | 25 µg/mL (≈ 51.8 µM) | 25 µg/mL (≈ 51.8 µM) | 25 µg/mL (≈ 51.8 µM)
CCn1cc(C(=O)O)c(=O)c2cc(F)c(N3CCNCC3)cc21 [NORFLOXACIN] | 125 µg/mL (≈ 391 µM) | 250 µg/mL (≈ 783 µM) | 1.56 µg/mL (≈ 4.89 µM) | 500 µg/mL (≈ 1570 µM) | 250 µg/mL (≈ 783 µM) | 500 µg/mL (≈ 1570 µM) | 500 µg/mL (≈ 1570 µM)
COc1ccc(C(=O)/C=C/c2cc3c(c4c2OC(C)(C)C=C4)OC[C@@H](c2ccc(OC)cc2OC)C3)cc1 | > 100 µg/mL | > 100 µg/mL | > 100 µg/mL | > 100 µg/mL | > 100 µg/mL | > 100 µg/mL | > 100 µg/mL
COc1ccc(C(=O)/C=C/c2cc([C@@H]3COc4c(cc(/C=C/C(=O)c5ccc(OC)cc5OC)c5c4C=CC(C)(C)O5)C3)c(OC)cc2OC)c(OC)c1 | 50 µg/mL (≈ 68.2 µM) | 50 µg/mL (≈ 68.2 µM) | 50 µg/mL (≈ 68.2 µM) | 50 µg/mL (≈ 68.2 µM) | 50 µg/mL (≈ 68.2 µM) | 50 µg/mL (≈ 68.2 µM) | 50 µg/mL (≈ 68.2 µM)
COc1ccc([C@@H]2COc3c(ccc4c3C=CC(C)(C)O4)C2)c(OC)c1 | > 100 µg/mL | > 100 µg/mL | > 100 µg/mL | > 100 µg/mL | > 100 µg/mL | > 100 µg/mL | > 100 µg/mL
COc1cc(OC)c([C@@H]2COc3c(cc(C=O)c4c3C=CC(C)(C)O4)C2)cc1C=O | > 100 µg/mL | > 100 µg/mL | > 100 µg/mL | > 100 µg/mL | > 100 µg/mL | > 100 µg/mL | > 100 µg/mL
COc1ccc(C(=O)/C=C/c2cc([C@@H]3COc4c(cc(/C=C/C(=O)c5ccc(OC)cc5)c5c4C=CC(C)(C)O5)C3)c(OC)cc2OC)cc1 | > 100 µg/mL | > 100 µg/mL | 100 µg/mL (≈ 149 µM) | > 100 µg/mL | > 100 µg/mL | > 100 µg/mL | > 100 µg/mL
COc1cc(OC)c([C@@H]2COc3c(cc(/C=C/C(=O)c4cc(OC)c(OC)c(OC)c4)c4c3C=CC(C)(C)O4)C2)cc1/C=C/C(=O)c1cc(OC)c(OC)c(OC)c1 | 100 µg/mL (≈ 126 µM) | 100 µg/mL (≈ 126 µM) | 50 µg/mL (≈ 63.1 µM) | 100 µg/mL (≈ 126 µM) | 100 µg/mL (≈ 126 µM) | 100 µg/mL (≈ 126 µM) | 100 µg/mL (≈ 126 µM)
COc1cccc(C(=O)/C=C/c2cc([C@@H]3COc4c(cc(/C=C/C(=O)c5cccc(OC)c5)c5c4C=CC(C)(C)O5)C3)c(OC)cc2OC)c1 | > 100 µg/mL | > 100 µg/mL | > 100 µg/mL | > 100 µg/mL | > 100 µg/mL | > 100 µg/mL | > 100 µg/mL
COc1cc(OC)c([C@@H]2COc3c(cc(/C=C/C(=O)c4ccc[nH]4)c4c3C=CC(C)(C)O4)C2)cc1/C=C/C(=O)c1ccc[nH]1 | 50 µg/mL (≈ 84.6 µM) | 50 µg/mL (≈ 84.6 µM) | 50 µg/mL (≈ 84.6 µM) | 50 µg/mL (≈ 84.6 µM) | 50 µg/mL (≈ 84.6 µM) | 50 µg/mL (≈ 84.6 µM) | 50 µg/mL (≈ 84.6 µM)
COc1ccc([C@@H]2COc3c(cc(C=O)c4c3C=CC(C)(C)O4)C2)c(OC)c1 | > 100 µg/mL | > 100 µg/mL | > 100 µg/mL | > 100 µg/mL | > 100 µg/mL | > 100 µg/mL | > 100 µg/mL
COc1cccc(C(=O)/C=C/c2cc([C@@H]3COc4c(ccc5c4C=CC(C)(C)O5)C3)c(OC)cc2OC)c1 | 50 µg/mL (≈ 97.5 µM) | 50 µg/mL (≈ 97.5 µM) | 25 µg/mL (≈ 48.8 µM) | 50 µg/mL (≈ 97.5 µM) | 50 µg/mL (≈ 97.5 µM) | 50 µg/mL (≈ 97.5 µM) | 50 µg/mL (≈ 97.5 µM)
